We go through 27 molecules from patent US10815238B2, “Antimicrobial compounds and methods of making and using the same” (BIOVERSYS AG, priority 2013, dated 2020).

Each structure is given as a SMILES string.

Experiment [1] concerns Staphylococcus aureus (S. aureus) 11540 strain. The experiment can be described thus: Standard microdilution assay, MIC against S. aureus 11540. It counts as cell-based. The note with it: S. aureus 11540 strain, standard microdilution assay, cutoff 16 micrograms/mL, read-out: MIC S. aureus. An outline of the steps: (§1)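 MIC determined by broth microdilution following CLSI protocols, with reference strains run in parallel for quality control. Activity scored +/− at a cutoff of 16 micrograms/mL.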

Experiment [2] relates to Eschericia coli (E. coli) strain ATCC25922. The experiment can be described thus: Standard microdilution assay, MIC against E. coli ATCC25922. Type of experiment: cell-based. To be noted: Escherichia coli; E. coli strain ATCC25922, standard microdilution assay; cutoff 16 micrograms/mL; read-out: MIC E. Coli. An outline of the steps:
as §1
(Dilution methods test growth across graded concentrations, often in twofold steps.)

A word on the MIC: it is the lowest concentration found to suppress growth.

For `C[C@H](N)CCCc1cc(OC(F)(F)F)c(F)c(-c2cc3cn(-c4ccc(CN[C@@H](CN)CCNC(=N)N)cc4)c(=O)nc3[nH]2)c1` [Compound 380], the MIC in experiment [1] and in experiment [2] was < 16 mg/L throughout.

Take `COCC[C@H](CCN[C@@H](C)c1ccc(-n2cc3cc(-c4cc(CCC[C@H](C)N)cc(Cl)c4F)[nH]c3nc2=O)cc1)NC(=N)N` [Compound 347]: the MIC in experiment [1] and in experiment [2] was < 16 mg/L each time.

For the molecule `C[C@H](N)CCCc1cc(OC(F)(F)F)c(F)c(-c2cc3cn(-c4ccc(C5(CCNC(=N)N)CNC5)cc4)c(=O)nc3[nH]2)c1` [Compound 435], the MIC in experiment [1] and in experiment [2] was < 16 mg/L throughout.

As to `C[C@H](N)CCCc1cc(Cl)c(F)c(-c2cc3cn(-c4ccc(CN[C@H](CCN)CNc5nccs5)cc4)c(=O)nc3[nH]2)c1` [Compound 490], the MIC in experiment [1] and in experiment [2] was < 16 mg/L each time.

Turning to `C[C@H](N)CCCc1cc(Cl)c(F)c(-c2cc3cn(-c4ccc([C@@H]5CCC[C@@H](CCc6c[nH]nn6)N5)cc4)c(=O)nc3[nH]2)c1` [Compound 543], the MIC in experiment [1] and in experiment [2] was > 16 mg/L each time.

Consider `C[C@H](N)CCCc1cc(OC(F)(F)F)c(F)c(-c2cc3cn(-c4ccc(C(O)[C@@H]5C[C@@H](N)CN5)cc4)c(=O)nc3[nH]2)c1` (stereo partly drawn) [Compound 449], for which the MIC was < 16 mg/L in experiment [1] and > 16 mg/L in experiment [2].

Consider `C[C@H](N)CCCc1cc(Cl)c(F)c(-c2cc3cn(-c4ccc([C@@H]5CCC[C@@H](CCNC=N)N5)cc4)c(=O)nc3[nH]2)c1` [Compound 515], for which the MIC in experiment [1] and in experiment [2] was < 16 mg/L each time.

Take `C[C@H](N)CCCc1cc(OC(F)(F)F)c(F)c(-c2cc3cn(-c4ccc([C@@H](N)CCCNC(=N)N)cc4)c(=O)nc3[nH]2)c1` [Compound 413]: the MIC in experiment [1] and in experiment [2] was < 16 mg/L each time.

Regarding `C[C@H](N)CCCc1cc(OC(F)(F)F)c(F)c(-c2cc3cn(-c4ccc([C@H]5CC[C@H](CCNC(=N)N)N5)cc4)c(=O)nc3[nH]2)c1` [Compound 352], the MIC in experiment [1] and in experiment [2] was < 16 mg/L throughout.

Turning to `C=C[C@H](C[C@H](C)NCc1ccc(-n2cc3cc(-c4cc(CCC[C@H](C)N)cc(Cl)c4F)[nH]c3nc2=O)cc1)NC(=N)N` [Compound 338], the MIC in experiment [1] and in experiment [2] was < 16 mg/L each time.

For the molecule `C=C[C@@H](CCNC(=N)N)NCc1ccc(-n2cc3cc(-c4cc(CCC[C@@H](N)CO)cc(Cl)c4F)[nH]c3nc2=O)cc1` [Compound 395], the MIC in experiment [1] and in experiment [2] was < 16 mg/L in each case.

`CC(=N)NCC[C@@H]1CCC[C@@H](c2ccc(-n3cc4cc(-c5cc(CCC[C@H](C)N)cc(Cl)c5F)[nH]c4nc3=O)cc2)N1` [Compound 516]: the MIC in experiment [1] and in experiment [2] was < 16 mg/L each time.

Regarding `C[C@H](N)CCCc1cc(Cl)c(F)c(-c2cc3cn(-c4ccc(C(N)CNC(=N)N)cc4)c(=O)nc3[nH]2)c1` (stereo partly drawn) [Compound 473], the MIC in experiment [1] and in experiment [2] was < 16 mg/L each time.

On to `C[C@H](N)CCCc1cc(OC(F)(F)F)c(F)c(-c2cc3cn(-c4ccc([C@H](C)N[C@H](CO)CCNC(=N)N)cc4)c(=O)nc3[nH]2)c1` [Compound 366], for which the MIC in experiment [1] and in experiment [2] was < 16 mg/L in each case.

For `C[C@H](N)CCCc1cc(Cl)c(F)c(-c2cc3cn(-c4ccc([C@@H]5CCC[C@@H](CCNC(=N)N)N5)cc4)c(=O)nc3[nH]2)c1` [Compound 420], the MIC in experiment [1] and in experiment [2] was < 16 mg/L each time.

Consider `C[C@H](N)CCCc1cc(Cl)c(F)c(-c2cc3cn(-c4ccc(C5=NCCCN5)cc4)c(=O)nc3[nH]2)c1` [Compound 564], for which the MIC in experiment [1] and in experiment [2] was < 16 mg/L throughout.

Consider `C[C@H](N)CCCc1cc(Cl)c(F)c(-c2cc3cn(-c4ccc(C(=N)NC5CC5)cc4)c(=O)nc3[nH]2)c1` [Compound 503], for which the MIC in experiment [1] and in experiment [2] was < 16 mg/L throughout.

As for `C[C@H](N)CCN1CC[C@@H](c2cc3cn(-c4ccc([C@H](C)NCCCNC(=N)N)cc4)c(=O)nc3[nH]2)C1` [Compound 573], the MIC in experiment [1] and in experiment [2] was < 16 mg/L in each case.

For the molecule `C[C@H](N)CCCc1cc(Cl)c(F)c(-c2cc3cn(-c4ccc([C@H](C)NCC[C@@H](CN5CCOCC5)NC(=N)N)cc4)c(=O)nc3[nH]2)c1` [Compound 341], the MIC in experiment [1] and in experiment [2] was < 16 mg/L in each case.

For `C[C@H](N)CCCc1cc(Cl)c(F)c(-c2cc3cn(-c4ccc([C@@H](N)CCCNC(=N)N)cc4)c(=O)nc3[nH]2)c1` [Compound 412], the MIC in experiment [1] and in experiment [2] was < 16 mg/L each time.

As for `CCOP(=O)(OCC)OC[C@@H]1COC[C@H](c2ccc(-n3cc4cc(-c5cc(CCC[C@H](C)N)cc(Cl)c5F)[nH]c4nc3=O)cc2)N1` [Compound 468], the MIC in experiment [1] is < 16 mg/L; in experiment [2], > 16 mg/L.

Turning to `C[C@H](N)CCCc1cc(OC(F)(F)F)c(F)c(-c2cc3cn(-c4ccc([C@H](C)NCC[C@H](CC#N)NC(=N)N)cc4)c(=O)nc3[nH]2)c1` [Compound 333], the MIC in experiment [1] and in experiment [2] was < 16 mg/L each time.

For `Cc1cc(OC[C@@H](CCNC(=N)N)NCc2ccc(-n3cc4cc(-c5cc(CCC[C@H](C)N)cc(Cl)c5F)[nH]c4nc3=O)cc2)no1` [Compound 518], the minimum inhibitory concentration (MIC) in experiment [1] and in experiment [2] was < 16 mg/L each time.

For the molecule `COC[C@H](CCNC(=N)N)N[C@@H](C)c1ccc(-n2cc3cc(-c4cc(CCC[C@H](C)N)cc(Cl)c4F)[nH]c3nc2=O)cc1` [Compound 355], the MIC in experiment [1] and in experiment [2] was < 16 mg/L each time.

Take `C[C@H](N)CCCc1cc(Cl)c(F)c(-c2cc3cn(-c4ccc([C@H]5CCO[C@H](CCNC(=N)N)C5)cc4)c(=O)nc3[nH]2)c1` [Compound 555]: the MIC in experiment [1] and in experiment [2] was < 16 mg/L in each case.

On to `C[C@H](N)CCCc1cc(Cl)c(F)c(-c2cc3cn(-c4ccc(C(=N)NC5CCCC5)cc4)c(=O)nc3[nH]2)c1` [Compound 505], for which the MIC in experiment [1] and in experiment [2] was < 16 mg/L in each case.

As for `C[C@H](N)CCCc1cc(Cl)c(F)c(-c2cc3cn(-c4ccc(C(=N)NCCCN)cc4)c(=O)nc3[nH]2)c1` [Compound 460], the MIC in experiment [1] and in experiment [2] was < 16 mg/L in each case.
